Data as given in patent publication US7419969B2 (Bristol-Myers Squibb Company, priority 2004, dated 2008).

The molecules below were run against T1, HIV-integrase (Human immunodeficiency virus type 1 group M subtype B, UniProt P04585) (assay: in-vitro activity against HIV-integrase (HIV Integrase Inhibition, SPA bead assay)). Details: Table 1; recombinant integrase, activity class.
T1 construct: Recombinant integrase (0.26 ng) was incubated with the beads
Format: biochemical
Protocol: To evaluate in-vitro activity against HIV-integrase, 5 pmole of biotin labeled substrate DNA was bound to 100 μg of Streptavidin coated PVT SPA beads (Amersham Pharmacia Biotech). Recombinant integrase (0.26 ng) was incubated with the beads for 90 min at 37° C. Unbound enzyme was removed by washing the complex followed by addition of inhibitors and […] of P33 labeled target DNA. The reaction was stopped by adding EDTA to a final concentration of 10 mM. Samples were counted in TopCountNXT (Packard) and the CPM was used as a measure of integration. The reaction condition was as described in Engelman, A. and Craigie, R. J. Vitrol. 1996, 69, 5908. The sequences of substrate and target DNA were described in Nucleic Acid Research 1994, 22, 1121.

Compound | IC50
O=C(NCc1ccc(F)cc1)c1nc2n(c(=O)c1O)CCC21CCCC1 [Example 84, N-[(4-fluorophenyl)methyl]-6′,7′-dihydro-3′-hydroxy-4′-oxo-spiro[cyclopentane-1,8′(4′H)-pyrrole[1,2-α]pyrimidine]-2′-carboxamide] | 1 to 10 nM
Cc1ncnn1-c1cc(F)ccc1CNC(=O)c1nc2n(c(=O)c1O)CCOC21CCC1 [Example 57, N-[[4-fluoro-2-(5-methyl-1H-1,2,4-triazol-1-yl)phenyl]methyl]-6′,7′-dihydro-3′-hydroxy-4′-oxo-spiro[cyclobutane-1,9′(4′H)-pyrimido[2,1-c][1,4]oxazine]-2′-carboxamide] | 1 to 10 nM
O=C(NCc1cccc(F)c1)c1nc2n(c(=O)c1O)CCOC21CCCC1 [Example 26, N-[(3-fluorophenyl)methyl]-6′,7′-dihydro-3 ′-hydroxy-4′-oxo-spiro[cyclopentane-1,9′(4′H)-pyrimido[2,1-c][1,4]oxazine]-2′-carboxamide] | 10 to 100 nM
O=C(NCc1ccccc1-n1cncn1)c1nc2n(c(=O)c1O)CCCC21CCC1 [Example 80, N-[[2-(1H-1,2,4-triazol-1-yl)phenyl]methyl]-7′,8′-dihydro-3′-hydroxy-4′-oxo-spiro[cyclobutane-1,9′(6′H)-[4H]pyrido[1,2-α]pyrimidine]-2′-carboxamide] | 1 to 10 nM
O=C(NCc1cc(F)ccc1-n1cncn1)c1nc2n(c(=O)c1O)CCCC21CCCC1 [Example 5, N-[[5-fluoro-2-(1H-1,2,4-triazol-1-yl)phenyl]methyl]-7′,8′-dihydro-3′-hydroxy-4′-oxo-spiro[cyclopentane-1,9′(6′H)-[4H]pyrido[1,2-α]pyrimidine]-2′-carboxamide] | 1 to 10 nM
Cc1cc(CNC(=O)c2nc3n(c(=O)c2O)CCOC32CCOC2)ccc1F (stereo not drawn) [Example 37, N-[(4-fluoro-3-methylphenyl)methyl]-4,5,6′,7′-tetrahydro-3′-hydroxy-4′-oxo-spiro[furan-3(2H),9′(4′H)-pyrimido[2,1-c][1,4]oxazine]-2′-carboxamide] | 1 to 10 nM
COc1ccc(CNC(=O)c2nc3n(c(=O)c2O)CCOC32CCCC2)cc1 [Example 23, 6′,7′-dihydro-3′-hydroxy-N-[(4-methoxyphenyl)methyl]-4′-oxo-spiro[cyclopentane-1,9′(4′H)-pyrimido[2,1-c][1,4]oxazine]-2′-carboxamide] | 10 to 100 nM
CS(=O)(=O)c1cc(F)ccc1CNC(=O)c1nc2n(c(=O)c1O)CCCC21CCCC1 [Example 11, N-[[4-fluoro-2-(methylsulfonyl)phenyl]methyl]-7′,8′-dihydro-3′-hydroxy-4′-oxo-spiro[cyclopentane-1,9′(6′H)-[4H]pyrido[1,2-α]pyrimidine]-2′-carboxamide] | 1 to 10 nM
O=C(NCc1ccccc1N1CCCCS1(=O)=O)c1nc2n(c(=O)c1O)CCOC21CCCC1 [Example 35, 6′,7′-dihydro-3′-hydroxy-4′-oxo-N-[[2-(tetrahydro-1,1-dioxido-2H-1,2-thiazin-2-yl)phenyl]methyl]-spiro[cyclopentane-1,9′(4′H)-pyrimido[2,1-c][1,4]oxazine]-2′-carboxamide] | 10 to 100 nM
COc1ccc(CNC(=O)c2nc3n(c(=O)c2O)CCOC32CCCC2)c(OC)c1 [Example 25, N-[(2,4-dimethoxyphenyl)methyl]-6′,7′-dihydro-3′-hydroxy-4′-oxo-spiro[cyclopentane-1,9′(4′H)-pyrimido[2,1-c][1,4]oxazine]-2′-carboxamide] | 10 to 100 nM
Cc1ncn(-c2cc(F)ccc2CNC(=O)c2nc3n(c(=O)c2O)CCOC32CCOCC2)n1 [Example 50, N-[[4-fluoro-2-(3-methyl-1H-1,2,4-triazol-1-yl)phenyl]methyl]-2,3,5,6,6′,7′-hexahydro-3′-hydroxy-4′-oxo-spiro[4H-pyran-4,9′(4′H)-pyrimido[2,1-c][1,4]oxazine]-2′-carboxamide] | 1 to 10 nM
O=C(NCc1ccccc1N1CCCCS1(=O)=O)c1nc2n(c(=O)c1O)CCOC21CCOCC1 [Example 43, N-[[2-(tetrahydro-1,1-dioxido-2H-1,2-thiazin-2-yl)phenyl]methyl]-2,3,5,6,6′,7′-hexahydro-3′-hydroxy-4′-oxo-spiro[4H-pyran-4,9′(4′H)-pyrimido[2,1-c][1,4]oxazine]-2′-carboxamide] | 10 to 100 nM
O=C(NCc1ccc(F)cc1-n1cncn1)c1nc2n(c(=O)c1O)CCOC21CCC1 [Example 51, N-[[4-fluoro-2-(1H-1,2,4-triazol-1-yl)phenyl]methyl]-6′,7′-dihydro-3′-hydroxy-4′-oxo-spiro[cyclobutane-1,9′(4′H)-pyrimido[2,1-c][1,4]oxazine]-2′-carboxamide] | 1 to 10 nM
COc1ccc(CNC(=O)c2nc3n(c(=O)c2O)CCCC32CCC2)c(OC)c1 [Example 71, N-[(2,4-dimethoxyphenyl)methyl]-7′,8′-dihydro-3′-hydroxy-4′-oxo-spiro[cyclobutane-1,9′(6′H)-[4H]pyrido[1,2-α]pyrimidine]-2′-carboxamide] | 10 to 100 nM
O=C(NCc1ccc(F)cc1-n1cncn1)c1nc2n(c(=O)c1O)CCOC21CCOC1 (stereo not drawn) [Example 38] | 1 to 10 nM
Cc1cc(CNC(=O)c2nc3n(c(=O)c2O)CCCC32CCC2)ccc1F [Example 72, N-[(4-fluoro-3-methylphenyl)methyl]-7′,8′-dihydro-3′-hydroxy-4′-oxo-spiro[cyclobutane-1,9′(6′H)-[4H]pyrido[1,2-α]pyrimidine]-2′-carboxamide] | 1 to 10 nM
CN(C)S(=O)(=O)c1cc(F)ccc1CNC(=O)c1nc2n(c(=O)c1O)CCCC21CCC1 [Example 82, N-[[2-[(dimethylamino)sulfonyl]-4-fluorophenyl]methyl]-7′,8′-dihydro-3′-hydroxy-4′-oxo-spiro[cyclobutane-1,9′(6′H)-[4H]pyrido[1,2-α]pyrimidine]-2′-carboxamide] | 1 to 10 nM
COc1ccc(CNC(=O)c2nc3n(c(=O)c2O)CCOC32CCOCC2)c(OC)c1 [Example 46, N-[(2,4-dimethoxyphenyl)methyl]-2,3,5,6,6′,7′-hexahydro-3′-hydroxy-4′-oxo-spiro[4H-pyran-4,9′(4′H)-pyrimido[2,1-c][1,4]oxazine]-2′-carboxamide] | 10 to 100 nM
O=C(NCc1ccc(F)cc1-n1ccnc1)c1nc2n(c(=O)c1O)CCCC21CCCC1 [Example 7, N-[[4-fluoro-2-(1H-imidazol-1-yl)phenyl]methyl]-7′,8′-dihydro-3′-hydroxy-4′-oxo-spiro[cyclopentane-1,9′(6′H)-[4H]pyrido[1,2-α]pyrimidine]-2′-carboxamide] | 1 to 10 nM

Same assay, conditions: Table 1a; recombinant integrase, activity class

Compound | IC50
Cc1ncn(-c2cc(F)ccc2CNC(=O)c2nc3n(c(=O)c2O)CCOC32CCC2)n1 [Example 124, Spiro[cyclobutane-1,9′(4′H)-pyrimido[2,1-c][1,4]oxazine]-2′-carboxamide, N-[[4-fluoro-2-(3-methyl-1H-1,2,4-triazol-1-yl)phenyl]methyl]-6′,7′-dihydro-3′-hydroxy-4′-oxo-] | 1 to 10 nM
Cc1ncnn1-c1cc(F)ccc1CNC(=O)c1nc2n(c(=O)c1O)CCN(C)C21CCC1 [Example 100, Spiro[cyclobutane-1,9′(6′H)-[4H]pyrazino[1,2-a]pyrimidine]-2′-carboxamide, N-[[4-fluoro-2-(5-methyl-1H-1,2,4-triazol-1-yl)phenyl]methyl]-7′,8′-dihydro-3′-hydroxy-8′-methyl-4′-oxo-] | 10 to 100 nM
CN1CCn2c(nc(C(=O)NCc3ccc(F)cc3)c(O)c2=O)C12CCCCC2 [Example 95, Spiro[cyclohexane-1,9′(6′H)-[4H]pyrazino[1,2-a]pyrimidine]-2′-carboxamide, N-[(4-fluorophenyl)methyl]-7′,8′-dihydro-3′-hydroxy-8′-methyl-4′-oxo-] | 1 to 10 nM
O=C(NCc1ccc(F)cc1N1CCOC1=O)c1nc2n(c(=O)c1O)CCOC21CCC1 [Example 105, Spiro[cyclobutane-1,9′(4′H)-pyrimido[2,1-c][1,4]oxazine]-2′-carboxamide, N-[[4-fluoro-2-(2-oxo-3-oxazolidinyl)phenyl]methyl]-6′,7′-dihydro-3′-hydroxy-4′-oxo-] | 1 to 10 nM
O=C(NCc1ccc(F)cc1-n1ccnn1)c1nc2n(c(=O)c1O)CCOC21CCOCC1 [Example 112, Spiro[4H-pyran-4,9′(4′H)-pyrimido[2,1-c][1,4]oxazine]-2′-carboxamide, N-[[4-fluoro-2-(1H-1,2,3-triazol-1-yl)phenyl]methyl]-2,3,5,6,6′,7′-hexahydro-3′-hydroxy-4′-oxo-] | 1 to 10 nM
Cc1nc(C)n(-c2cc(F)ccc2CNC(=O)c2nc3n(c(=O)c2O)CCOC32CCC2)n1 [Example 127, Spiro[cyclobutane-1,9′(4′H)-pyrimido[2,1-c][1,4]oxazine]-2′-carboxamide, N-[[2-(3,5-dimethyl-1H-1,2,4-triazol-1-yl)-4-fluorophenyl]methyl]-6′,7′-dihydro-3′-hydroxy-4′-oxo-] | 10 to 100 nM
Cc1ncn(-c2cc(F)ccc2CNC(=O)c2nc3n(c(=O)c2O)CCCOC32CCC2)n1 [Example 123, Spiro[cyclobutane-1,10′(4′H)-[6H]pyrimido[2,1-c][1,4]oxazepine]-2′-carboxamide, N-[[4-fluoro-2-(3-methyl-1H-1,2,4-triazol-1-yl)phenyl]methyl]-7′,8′-dihydro-3′-hydroxy-4′-oxo-] | 1 to 10 nM
Cc1nnn(-c2cc(F)ccc2CNC(=O)c2nc3n(c(=O)c2O)CCCOC32CCC2)c1C [Example 107, Spiro[cyclobutane-1,10′(4′H)-[6H]pyrimido[2,1-c][1,4]oxazepine]-2′-carboxamide, N-[[2-(4,5-dimethyl-1H-1,2,3-triazol-1-yl)-4-fluorophenyl]methyl]-7′,8′-dihydro-3′-hydroxy-4′-oxo-] | 10 to 100 nM
